# System: protein degradation in muscle
# Assay: Urinary 3-methylhistidine to creatinine ratio after an acute exercise bout
# Type: in vivo, human
# Protocol: Subjects: We conducted a study at the Iowa State University Health and Human Performance Laboratory; this study was approved by the Iowa State University Institutional Review Board, and was registered at ClinicalTrials.gov (NCT01150526). We recruited 12 men and 13 women between the ages of 20 and 36 from the Iowa State University community and surrounding area.
# Treatments: The experimental design is depicted in FIG. 8.
# Five treatments were administered as follows: Treatment 1: Placebo. This group received a placebo capsule and a placebo syringe dosage at each dosage administration. Treatment 2: CaHMB pre-exercise. This group received a CaHMB capsule and a placebo syringe dosage 30 min prior to the acute exercise bout. The remaining additional dosages during the study consisted of one placebo capsule and one placebo syringe dosage. Treatment 3: HMB-acid gel pre-exercise. This group received a placebo capsule and a syringe dosage of HMB-acid gel 30 min prior to the acute exercise bout. The remaining additional dosages during the study consisted of one placebo capsule and one placebo syringe dosage. Treatment 4: CaHMB pre- and post-exercise. This group received a CaHMB capsule and a placebo syringe dosage at all administration times during the study. Treatment 5: HMB-acid gel pre- and post-exercise. This group received a syringe dosage of HMB-acid gel and one placebo capsule at all administration times during the study.
# To blind the treatments to both the researchers and subjects, each subject took a capsule and syringe dosage of supplement at each administration. The capsules contained either one gram of calcium lactate (Placebo) or one gram of calcium β-hydroxy-β-methylbutryate (CaHMB). The syringe dosages were formulated to be similar in taste and appearance and contained either 0.8 g of corn syrup (Placebo) or 0.8 g of β-hydroxy-β-methylbutryate free acid, the same amount of HMB as in the capsule dosage. The 3 daily doses provided the same total HMB dosage (2.4 g as calcium HMB in the capsules or 2.4 g as HMB free acid in the syringes).
# Eccentric Exercise Bout: Subjects refrained from vigorous exercise for three days before reporting to the laboratory. All subjects were studied after an overnight fast. […] Subjects then consumed their assigned supplement and 30 minutes later the eccentric exercise session was performed. The exercise consisted of 50 maximal effort contractions of knee extensors while attempting to resist the Biodex lever arm as it moves the knee joint from full extension to 90 degrees flexion; this is similar to letting a heavy weight down slowly while in a seated position. Each contraction lasted about 2 seconds and 12 seconds were allowed between contractions. This protocol was performed on the right leg followed by the left leg. The subjects received 2 more daily dosages of treatment (placebo or HMB) with instructions to take the dosages at lunch and dinner. For the next 4 days the subjects returned to the laboratory fasted each morning, had blood taken and urine collected and then consumed the morning dosage of their supplement. The subjects were again given the 2 remaining daily supplement dosages with instructions to take them at lunch and dinner.
# Serum and Urine Samples: A fasting blood sample was taken from a superficial forearm vein each morning when the subjects reported to the laboratory for testing. Additionally a clean catch urine sample was collected at this time. Serum CPK was analyzed by a commercial laboratory (Quest Diagnostics, Madison N.J.). Urine 3-Methylhistidine (3MH) was analyzed by a previously published GC/MS method (9). Urinary creatinine was analyzed by colorimetric assay (Cayman Chemical Company, Ann Arbor, Mich.). The urinary 3MH data was normalized to urinary creatinine and expressed as 3MH:creatinine ratio, μmol:mg.
# Statistics: Data were analyzed using the mixed model procedure in Statistical Analysis System for Windows (Release 9.1.3, SAS Institute, Cary, N.C.). […]
smiles,measurement,setting,value
"CC(C)(O)CC(=O)[O-].CC(C)(O)CC(=O)[O-].[Ca+2] [CaHMB, calcium β-hydroxy-β-methylbutryate, reference compound]",3MH:Cr,"Baseline, dosed pre- and post exercise (Treatments 4, 5)",0.205 ± 0.025 µmol/mg
same,3MH:Cr,"Baseline, dosed pre-exercise only (Treatments 2, 3)",0.164 ± 0.037 µmol/mg
same,3MH:Cr,"at 24 h, dosed pre- and post exercise (Treatments 4, 5)",0.203 ± 0.039 µmol/mg
same,3MH:Cr,"at 24 h, dosed pre-exercise only (Treatments 2, 3)",0.190 ± 0.027 µmol/mg
same,3MH:Cr,"at 48 h, dosed pre- and post exercise (Treatments 4, 5)",0.220 ± 0.027 µmol/mg
same,3MH:Cr,"at 48 h, dosed pre-exercise only (Treatments 2, 3)",0.240 ± 0.052 µmol/mg
same,3MH:Cr,"at 72 h, dosed pre- and post exercise (Treatments 4, 5)",0.231 ± 0.037 µmol/mg
same,3MH:Cr,"at 72 h, dosed pre-exercise only (Treatments 2, 3)",0.204 ± 0.058 µmol/mg
same,3MH:Cr,"at 96 h, dosed pre- and post exercise (Treatments 4, 5)",0.269 ± 0.038 µmol/mg
same,3MH:Cr,"at 96 h, dosed pre-exercise only (Treatments 2, 3)",0.187 ± 0.029 µmol/mg
